Read-outs that look alike come from different tables or passages of the source.
Columns and labels:
[1] = system: 7404 (Liver Cancer); test: SRB assay, 7404; assay type: cell-based; settings: 72 h, read-out: IC50 (μM) (mean ± SD)
Procedure: Experimental method: The antineoplasmic activities in vitro of the compounds were determined by SRB assay. The detailed procedure was as follows. The cells in the logarithmic growth phase were inoculated on a 96-well microculture plate with a suitable density (100 μl/well), and allowed to attach overnight, followed by addition of the compound at different concentrations to be treated for 72 h. For each concentration, the test was carried out in triplicate wells, and included control wells containing the aqueous medium of normal saline and a blank well containing all medium without cells for zeroing. After cultured overnight, the cells were treated with the compound at different concentrations for 72 h. After the treatment, the culture medium was removed, and the cells were fixed with 10% (wt/vol) trichloroacetic acid (100 μL/well) at 4° C. for 1 h. The cells were then washed with distilled water for 5 times, and died at room temperature, followed by addition of a SRB solution (4 mg/mL, dissolved in 1% glacial acetic acid) at 100 μL/well. The cells were incubated and stained at room temperature for 15 min, then washed with 1% glacial acetic acid for 5 times to remove the uncombined SRB, and died at room temperature. 100 μL of 10 mM Tris solution was added in each well, and the Optical Density (OD) were measured at a wavelength of 560 nm on a VERSMax ELISA Reader (Molecule Devices). The growth inhibition of the compound against tumor cells was calculated according to the following equation: Growth inhibition (%)=(ODcontrol−ODtreated)/ODcontrol×100%.
IC50 (the concentration of the sample compound that is required for 50% inhibition of cell growth) was calculated by using the Logit method based on the measurement, and each test was repeated for 3 times to calculate the mean value and standard deviation.

[2] = system: MDA-MB-435S human breast cancer cells; test: MTT assay, proliferation of MDA-MB-435S cells; assay type: cell-based; settings: 72 h
Procedure: The experiments for evaluating the antineoplasmic activities of the compounds according to the present invention were carried out, and the compounds' antineoplasmic activities in vitro was evaluated by determining the inhibitory activities thereof against the proliferation of MDA-MB-435S human breast cancer cells.
The antineoplasmic activities were determined by using the MTT assay, which is based on the metabolic reduction of 3-(4,5-dimethylthylthiazol-2-yl)-2,5-diphenyl tetrazolium bromide (MTT). The dehydrogenases, which are related to NADP (niacinamide adenine dinucleotide phosphate, coenzyme) and present in mitochondrions of living cells, can reduce the yellow MTT to an insoluble, dark purple formazan. […] After the formazan is dissolved in DMSO, the optical density is determined on an ELISA Reader at the wavelength of 550/690 nm.
The adhered MDA-MB-4355 cells in logarithmic growth phase, were digested by 0.05% trypsogen, counted and formulated into a cell suspension with a medium. After counted, the suspension was inoculated on a 96-well plate with 3000 cells and 100 μl medium per well. The inoculated 96-well plate was placed overnight in an incubator at 37 with 5% CO2 to allow the cells to adhere to the wall. On the next day, the administration of the drugs started. Before the administration, into some of the control wells, each was added 20 μl of the MTT solution (5 mg/ml) without removing the medium therein. After incubated for 3 h, the absorption at A550/690 was recorded as the initial cell concentration. For the drug wells, each was added into 100 μl of medium containing 2 μl of compound solution. For the control wells which use DMSO as background control, each was also added into 100 μl of medium containing 2 μl of DMSO. In addition, each experiment was carried out with adriamycin as the positive control. Subsequently, the 96-well plate was incubated in an incubator at 37 with 5% CO2 for 72 h. each compound was tested in triplicate wells (6 μl of compound solution was put into a sterilized eppendorf centrifuge tube, then 300 μl of medium was added and mixed well, and the mixture was distributed into 3 wells respectively), and at six concentrations which form a gradient. 3 days (72 h) later, 40 μl of MTT solution (5 mg/ml) was put into each well directly (without sucking off the medium therein), and the plate was incubated in the incubator for 3 h and then taken out. The liquid in each well was sucked off, and then 100 μl of DMSO was put into each well to dissolve the crystal completely with slight shake. The absorbance of the solution in each well was determined at 550/690 nm on an ELISA Reader as the cell density after treated with the compound. The growth inhibition of compound against breast cancer cells MDA-MB-435S was represented by the cell survival rate, and IC50 was determined from the profile of cell survival rate vs compound concentration. The calculating formula was as follows: cell survival rate=[(cells+compound)A550/690/(cells+compound vector DMSO)A550/690]×100%

SMILES: CO[C@@H](C(=O)N[C@@H](C)C(=O)NCCOC(=O)C12CC3CC(CC(C3)C1)C2)[C@H](O)[C@@H](O)[C@H](O)/C=C/C(C)(C)C [Compound L538]
- IC50 [1]: > 20 µM
- IC50 ([2]; read-out: Cell Survival Rate IC50): 490 nM
- IC50 ([2]; Homo sapiens, note: MDA-MB-435S, read-out: IC50 (MDA-MB-435)): 494 ± 139 nM
- IC50 ([2]; Homo sapiens, read-out: Cell Survival Rate IC50): 430 nM

— patent publication US8470763B2, “Alpha-amino-N-substituted amides, pharmaceutical composition containing them and uses thereof” (Shanghai Institute of Materia Medica Chinese Academy of …, priority 2007, dated 2013)
